Data as given in patent US11453683B1, “KRas G12D inhibitors” (Mirati Therapeutics, Inc., priority 2019, dated 2022).

What follows are molecules tested against KRas G12D (Homo sapiens (Human), UniProt P01116, G12D) (assay: KRas G12D Binding Assay (TR-FRET displacement)). Conditions: TR-FRET displacement of Cy5 labelled tracer, GDP-loaded KRAS G12D, 60 minute incubation at 22° C.
Chain of KRas G12D (P01116 other isoform, or with tags, fused parts or gaps G12D): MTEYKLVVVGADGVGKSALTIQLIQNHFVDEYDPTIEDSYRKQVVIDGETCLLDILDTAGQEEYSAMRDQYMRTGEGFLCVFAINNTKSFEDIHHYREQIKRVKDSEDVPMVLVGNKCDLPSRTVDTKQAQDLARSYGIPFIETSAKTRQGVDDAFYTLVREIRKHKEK
Protocol: After a 60 minute incubation at 22° C., the reaction was measured using a PerkinElmer EnVision multimode plate reader via TR-FRET dual wavelength detection, and the percent of control (POC) calculated using a ratiometric emission factor. […] The POC values were fit to a 4-parameter logistic curve and the IC50 value was determined as the concentration where the curve crosses 50 POC.
Molecule `Fc1c(-c2ccccc2C2CCC2)ncc2c(N3CC4CCC(C3)N4)nc(OCC34CCCN3C[C@H](F)C4)nc12` (mixture of isomers) [Example 371, 4-((1R,5S)-3,8-diazabicyclo[3.2.1]octan-3-yl)-7-(2-cyclobutylphenyl)-8-fluoro-2-((2-fluorotetrahydro-1H-pyrrolizin-7a(5H)-yl)methoxy)pyrido[4,3-d]pyrimidine (racemic, trans)] has an IC50 of 394 nM. `COc1cc(-c2ncc3c(N4CC5CCC(C4)N5)nc(OC[C@@]45CCCN4C[C@H](F)C5)nc3c2F)c2ccccc2c1` (racemic) [Example 385, 4-((1R,5S)-3,8-diazabicyclo[3.2.1]octan-3-yl)-8-fluoro-2-((2-fluorotetrahydro-1H-pyrrolizin-7a(5H)-yl)methoxy)-7-(3-methoxynaphthalen-1-yl)pyrido[4,3-d]pyrimidine (racemic, trans)] gave an IC50 of 3080 nM. Work on `Oc1ccc(SC(F)(F)F)c(-c2ncc3c(N4CC5CCC(C4)N5)nc(OC[C@@]45CCCN4C[C@H](F)C5)nc3c2F)c1` (racemic) [Example 386, 3-(4-((1R,5S)-3,8-diazabicyclo[3.2.1]octan-3-yl)-8-fluoro-2-((2-fluorotetrahydro-1H-pyrrolizin-7a(5H)-yl)methoxy)pyrido[4,3-d]pyrimidin-7-yl)-4-((trifluoromethyl)thio)phenol (racemic, trans)] yielded an IC50 of 2 nM. `Fc1c(-c2ccccc2CC(F)(F)F)ncc2c(N3CC4CCC(C3)N4)nc(OC[C@@]34CCCN3C[C@H](F)C4)nc12` (racemic) [Example 383, 4-((1R,5S)-3,8-diazabicyclo[3.2.1]octan-3-yl)-8-fluoro-2-((2-fluorotetrahydro-1H-pyrrolizin-7a(5H)-yl)methoxy)-7-(2-(2,2,2-trifluoroethyl)phenyl)pyrido[4,3-d]pyrimidine (racemic, trans)] showed an IC50 of 586 nM. For `COc1ccc(OC(F)(F)F)c(-c2ncc3c(N4CC5CCC(C4)N5)nc(OC[C@@]45CCCN4C[C@H](F)C5)nc3c2F)c1` (racemic) [Example 361, 4-((1R,5S)-3,8-diazabicyclo[3.2.1]octan-3-yl)-8-fluoro-2-((2-fluorotetrahydro-1H-pyrrolizin-7a(5H)-yl)methoxy)-7-(5-methoxy-2-(trifluoromethoxy)phenyl)pyrido[4,3-d]pyrimidine (racemic, trans)], the IC50 was 2700 nM. Work on `Nc1ccc(Cl)c(F)c1-c1ncc2c(N3CC4CCC(C3)N4)nc(OC[C@@]34CCCN3C[C@H](F)C4)nc2c1F` (racemic) [Example 380, 2-(4-((1R,5S)-3,8-diazabicyclo[3.2.1]octan-3-yl)-8-fluoro-2-((2-fluorotetrahydro-1H-pyrrolizin-7a(5H)-yl)methoxy)pyrido[4,3-d]pyrimidin-7-yl)-4-chloro-3-fluoroaniline bis(2,2,2-trifluoroacetate) (racemic, trans)] yielded an IC50 of 65.7 nM. With `Fc1c(-c2ccccc2C2CC2)ncc2c(N3CC4CCC(C3)N4)nc(OC[C@@]34CCCN3C[C@H](F)C4)nc12` (racemic) [Example 368, 4-((1R,5S)-3,8-diazabicyclo[3.2.1]octan-3-yl)-7-(2-cyclopropylphenyl)-8-fluoro-2-((2-fluorotetrahydro-1H-pyrrolizin-7a(5H)-yl)methoxy)pyrido[4,3-d]pyrimidine (racemic, trans)] the IC50 was 208 nM. `Cc1cc2[nH]ncc2c(-c2ncc3c(N4CC5CCC(C4)N5)nc(OC[C@@]45CCCN4C[C@H](F)C5)nc3c2F)c1Cl` (racemic) [Example 376, 4-((1R,5S)-3,8-diazabicyclo[3.2.1]octan-3-yl)-7-(5-chloro-6-methyl-1H-indazol-4-yl)-8-fluoro-2-((2-fluorotetrahydro-1H-pyrrolizin-7a(5H)-yl)methoxy)pyrido[4,3-d]pyrimidine (racemic, trans)] showed an IC50 of 2.6 nM. For `CO[C@H]1C[C@@H](COc2nc(N3C[C@H]4CC[C@@H](C3)N4)c3cnc(-c4cccc5cccc(Cl)c45)c(F)c3n2)N(C)C1` [Example 149, 4-((1R,5S)-3,8-diazabicyclo[3.2.1]octan-3-yl)-7-(8-chloronaphthalen-1-yl)-8-fluoro-2-(((2S,4S)-4-methoxy-1-methylpyrrolidin-2-yl)methoxy)pyrido[4,3-d]pyrimidine], the IC50 was 870 nM. Molecule `Oc1cccc(F)c1-c1ncc2c(N3CC4CCC(C3)N4)nc(OCC34CCCN3C[C@H](F)C4)nc2c1F` (mixture of isomers) [Example 369, 2-(4-((1R,5S)-3,8-diazabicyclo[3.2.1]octan-3-yl)-8-fluoro-2-((2-fluorotetrahydro-1H-pyrrolizin-7a(5H)-yl)methoxy)pyrido[4,3-d]pyrimidin-7-yl)-3-fluorophenol (racemic, trans)] has an IC50 of 221 nM.

Each molecule was assayed on KRas G12D-mediated phosphorylation of ERK (assay: Inhibition of KRas G12D-mediated phosphorylation of ERK in AGS cells). Conditions: Homo sapiens; AGS cells expressing G12D, 3 hours, phospho-ERK normalized to GAPDH.
Assay type: cell-based
Outline: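 In-cell Western: p-ERK Thr202/Tyr204 signal over GAPDH, as % of DMSO control, with IC50 from a 4-parameter curve. AGS cells seeded 40,000/well for 12-14 h, exposed to compound 3 h at 0.5% DMSO final, then formaldehyde-fixed and methanol-permeabilized.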
For `COc1cc(-c2ncc3c(N4CC5CCC(C4)N5)nc(OC[C@@]45CCCN4C[C@H](F)C5)nc3c2F)c2ccccc2c1` (racemic) [Example 385, 4-((1R,5S)-3,8-diazabicyclo[3.2.1]octan-3-yl)-8-fluoro-2-((2-fluorotetrahydro-1H-pyrrolizin-7a(5H)-yl)methoxy)-7-(3-methoxynaphthalen-1-yl)pyrido[4,3-d]pyrimidine (racemic, trans)], the IC50 was over 16700 nM. With `Oc1ccc(SC(F)(F)F)c(-c2ncc3c(N4CC5CCC(C4)N5)nc(OC[C@@]45CCCN4C[C@H](F)C5)nc3c2F)c1` (racemic) [Example 386, 3-(4-((1R,5S)-3,8-diazabicyclo[3.2.1]octan-3-yl)-8-fluoro-2-((2-fluorotetrahydro-1H-pyrrolizin-7a(5H)-yl)methoxy)pyrido[4,3-d]pyrimidin-7-yl)-4-((trifluoromethyl)thio)phenol (racemic, trans)] the IC50 was 320 nM. In the case of `Nc1ccc(Cl)c(F)c1-c1ncc2c(N3CC4CCC(C3)N4)nc(OC[C@@]34CCCN3C[C@H](F)C4)nc2c1F` (racemic) [Example 380, 2-(4-((1R,5S)-3,8-diazabicyclo[3.2.1]octan-3-yl)-8-fluoro-2-((2-fluorotetrahydro-1H-pyrrolizin-7a(5H)-yl)methoxy)pyrido[4,3-d]pyrimidin-7-yl)-4-chloro-3-fluoroaniline bis(2,2,2-trifluoroacetate) (racemic, trans)], the IC50 is reported as over 16700 nM. `Nc1nc(N2CC3CCC(C2)N3)c2cnc(-c3cc(O)cc4ccccc34)c(F)c2n1` [Example 182, 4-[2-amino-4-(3,8-diazabicyclo[3.2.1]octan-3-yl)-8-fluoro-pyrido[4,3-d]pyrimidin-7-yl]naphthalen-2-ol] was tested, and the IC50 was 13500 nM. Molecule `CCO[C@@H]1C[C@@H](COc2nc(N3C[C@H]4CC[C@@H](C3)N4)c3cnc(-c4cccc5cccc(Cl)c45)c(F)c3n2)N(C)C1` [Example 43, 4-((1R,5S)-3,8-diazabicyclo[3.2.1]octan-3-yl)-7-(8-chloronaphthalen-1-yl)-2-(((2S,4R)-4-ethoxy-1-methylpyrrolidin-2-yl)methoxy)-8-fluoropyrido[4,3-d]pyrimidine] has an IC50 of 6200 nM. Work on `CN1CCC[C@H]1COc1nc(N2C[C@H]3CC[C@@H](C2)N3)c2cnc(-c3cccc4cccc(Cl)c34)c(F)c2n1` [Example 132, 4-((1R,5S)-3,8-diazabicyclo[3.2.1]octan-3-yl)-7-(8-chloronaphthalen-1-yl)-8-fluoro-2-(((S)-1-methylpyrrolidin-2-yl)methoxy)pyrido[4,3-d]pyrimidine] yielded an IC50 of 2560 nM. In the case of `CO[C@H]1CN2CCC[C@]2(COc2nc(N3CC4CCC(C3)N4)c3cnc(-c4cc(O)cc5cccc(F)c45)c(F)c3n2)C1` (stereo in doubt) [Example 406, 4-(4-((1R,5S)-3,8-diazabicyclo[3.2.1]octan-3-yl)-8-fluoro-2-((2-methoxytetrahydro-1H-pyrrolizin-7a(5H)-yl)methoxy)pyrido[4,3-d]pyrimidin-7-yl)-5-fluoronaphthalen-2-ol], the IC50 is reported as 440 nM. For `Cc1cc2[nH]ccc2c(-c2ncc3c(N4C[C@H]5CC[C@@H](C4)N5)nc(OCC45CCCN4CCC5)nc3c2F)c1C` [Example 250, 4-((1R,5S)-3,8-diazabicyclo[3.2.1]octan-3-yl)-7-(5,6-dimethyl-1H-indol-4-yl)-8-fluoro-2-((hexahydro-1H-pyrrolizin-7a-yl)methoxy)pyrido[4,3-d]pyrimidine], the IC50 was 7480 nM. For `OCC#Cc1cccc2cccc(-c3ncc4c(N5C[C@H]6CC[C@@H](C5)N6)nc(OCC56CCCN5CCC6)nc4c3F)c12` [Example 193, 3-(8-(4-((1R,5S)-3,8-diazabicyclo[3.2.1]octan-3-yl)-8-fluoro-2-((tetrahydro-1H-pyrrolizin-7a(5H)-yl)methoxy)pyrido[4,3-d]pyrimidin-7-yl)naphthalen-1-yl)prop-2-yn-1-ol], the IC50 was 8520 nM. Molecule `CO[C@@H]1C[C@@H](COc2nc(N3C[C@H]4CC[C@@H](C3)N4)c3cnc(-c4cc(O)cc5ccccc45)c(F)c3n2)N(C)C1` [Example 42, 4-(4-((1R,5S)-3,8-diazabicyclo[3.2.1]octan-3-yl)-8-fluoro-2-(((2S,4R)-4-methoxy-1-methylpyrrolidin-2-yl)methoxy)pyrido[4,3-d]pyrimidin-7-yl)naphthalen-2-ol] has an IC50 of 638 nM. Work on `CN1C[C@H](NC(=O)c2cccc(S(=O)(=O)F)c2)C[C@H]1COc1nc(N2C[C@H]3CC[C@@H](C2)N3)c2cnc(-c3cccc4cccc(Cl)c34)c(F)c2n1` [Example 211, 3-(((3R,5S)-5-(((4-((1R,5S)-3,8-diazabicyclo[3.2.1]octan-3-yl)-7-(8-chloronaphthalen-1-yl)-8-fluoropyrido[4,3-d]pyrimidin-2-yl)oxy)methyl)-1-methylpyrrolidin-3-yl)carbamoyl)benzenesulfonyl fluoride tris(2,2,2-trifluoroacetate)] yielded an IC50 of 13500 nM. With `Oc1cc(-c2ncc3c(N4C[C@H]5CC[C@@H](C4)N5)nc(OCC4CCCC4)nc3c2F)c2ccccc2c1` [Example 73, 4-(4-((1R,5S)-3,8-diazabicyclo[3.2.1]octan-3-yl)-2-(cyclopentylmethoxy)-8-fluoropyrido[4,3-d]pyrimidin-7-yl)naphthalen-2-ol] the IC50 was over 5560 nM. `COc1cccc2cccc(-c3ncc4c(N5C[C@H]6CC[C@@H](C5)N6)nc(OCC56CCCN5CCC6)nc4c3F)c12` [Example 236, 4-((1R,5S)-3,8-diazabicyclo[3.2.1]octan-3-yl)-8-fluoro-2-((hexahydro-1H-pyrrolizin-7a-yl)methoxy)-7-(8-methoxynaphthalen-1-yl)pyrido[4,3-d]pyrimidine] showed an IC50 of 2630 nM. Molecule `Oc1cc(-c2ncc3c(N4C[C@H]5CC[C@@H](C4)N5)nc(OCCc4ccc(F)cn4)nc3c2F)c2ccccc2c1` [Example 102, 4-(4-((1R,5S)-3,8-diazabicyclo[3.2.1]octan-3-yl)-8-fluoro-2-(2-(5-fluoropyridin-2-yl)ethoxy)pyrido[4,3-d]pyrimidin-7-yl)naphthalen-2-ol] has an IC50 of 7960 nM. `Fc1c(-c2cccc3cccc(Cl)c23)ncc2c(N3C[C@H]4CC[C@@H](C3)N4)nc(OC[C@]34CCCN3[C@@H](Cn3cccn3)CC4)nc12` [Example 418, 2-((3-((1H-pyrazol-1-yl)methyl)tetrahydro-1H-pyrrolizin-7a(5H)-yl)methoxy)-4-(3,8-diazabicyclo[3.2.1]octan-3-yl)-7-(8-chloronaphthalen-1-yl)-8-fluoropyrido[4,3-d]pyrimidine bis(2,2,2-trifluoroacetate)] showed an IC50 of 2740 nM.
